Consider three compounds from ChEMBL document CHEMBL3124838, “Discovery of 6-aryl-azabenzimidazoles that inhibit the TBK1/IKK-ε kinases” (Bioorg Med Chem Lett, 2014).

Sequence of Epidermal growth factor receptor (Homo sapiens) (P00533 whole entry): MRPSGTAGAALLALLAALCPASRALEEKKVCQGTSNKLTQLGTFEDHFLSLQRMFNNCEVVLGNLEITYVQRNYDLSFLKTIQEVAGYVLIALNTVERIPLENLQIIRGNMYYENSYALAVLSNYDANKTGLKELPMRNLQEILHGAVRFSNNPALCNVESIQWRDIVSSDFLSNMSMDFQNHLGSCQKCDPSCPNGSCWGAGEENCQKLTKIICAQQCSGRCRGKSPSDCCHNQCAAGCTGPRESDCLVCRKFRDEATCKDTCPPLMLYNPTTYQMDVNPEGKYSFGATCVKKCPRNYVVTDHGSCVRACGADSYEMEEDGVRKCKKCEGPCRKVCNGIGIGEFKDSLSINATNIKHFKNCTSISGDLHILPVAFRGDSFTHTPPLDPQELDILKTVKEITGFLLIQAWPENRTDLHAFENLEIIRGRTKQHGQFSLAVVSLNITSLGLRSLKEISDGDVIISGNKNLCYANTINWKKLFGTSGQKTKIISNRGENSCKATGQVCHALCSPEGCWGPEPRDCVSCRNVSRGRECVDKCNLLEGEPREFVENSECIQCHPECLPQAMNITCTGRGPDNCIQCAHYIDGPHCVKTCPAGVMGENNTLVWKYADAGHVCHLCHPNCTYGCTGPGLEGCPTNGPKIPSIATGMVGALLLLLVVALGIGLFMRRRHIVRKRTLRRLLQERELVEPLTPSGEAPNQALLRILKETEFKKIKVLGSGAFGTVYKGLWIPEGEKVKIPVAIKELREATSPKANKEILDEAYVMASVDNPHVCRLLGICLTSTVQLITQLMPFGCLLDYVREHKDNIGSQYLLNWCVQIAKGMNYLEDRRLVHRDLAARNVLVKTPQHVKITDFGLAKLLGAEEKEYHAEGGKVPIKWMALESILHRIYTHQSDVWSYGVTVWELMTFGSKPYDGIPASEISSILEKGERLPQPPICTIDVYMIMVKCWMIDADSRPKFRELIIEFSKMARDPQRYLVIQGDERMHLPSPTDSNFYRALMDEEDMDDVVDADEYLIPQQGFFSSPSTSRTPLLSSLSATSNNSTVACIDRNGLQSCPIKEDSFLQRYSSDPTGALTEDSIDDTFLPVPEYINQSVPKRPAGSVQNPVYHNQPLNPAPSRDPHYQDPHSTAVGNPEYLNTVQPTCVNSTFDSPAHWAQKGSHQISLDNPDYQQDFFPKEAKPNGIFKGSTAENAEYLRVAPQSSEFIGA
Sequence of Hepatocyte growth factor receptor (Homo sapiens) (P08581 whole entry): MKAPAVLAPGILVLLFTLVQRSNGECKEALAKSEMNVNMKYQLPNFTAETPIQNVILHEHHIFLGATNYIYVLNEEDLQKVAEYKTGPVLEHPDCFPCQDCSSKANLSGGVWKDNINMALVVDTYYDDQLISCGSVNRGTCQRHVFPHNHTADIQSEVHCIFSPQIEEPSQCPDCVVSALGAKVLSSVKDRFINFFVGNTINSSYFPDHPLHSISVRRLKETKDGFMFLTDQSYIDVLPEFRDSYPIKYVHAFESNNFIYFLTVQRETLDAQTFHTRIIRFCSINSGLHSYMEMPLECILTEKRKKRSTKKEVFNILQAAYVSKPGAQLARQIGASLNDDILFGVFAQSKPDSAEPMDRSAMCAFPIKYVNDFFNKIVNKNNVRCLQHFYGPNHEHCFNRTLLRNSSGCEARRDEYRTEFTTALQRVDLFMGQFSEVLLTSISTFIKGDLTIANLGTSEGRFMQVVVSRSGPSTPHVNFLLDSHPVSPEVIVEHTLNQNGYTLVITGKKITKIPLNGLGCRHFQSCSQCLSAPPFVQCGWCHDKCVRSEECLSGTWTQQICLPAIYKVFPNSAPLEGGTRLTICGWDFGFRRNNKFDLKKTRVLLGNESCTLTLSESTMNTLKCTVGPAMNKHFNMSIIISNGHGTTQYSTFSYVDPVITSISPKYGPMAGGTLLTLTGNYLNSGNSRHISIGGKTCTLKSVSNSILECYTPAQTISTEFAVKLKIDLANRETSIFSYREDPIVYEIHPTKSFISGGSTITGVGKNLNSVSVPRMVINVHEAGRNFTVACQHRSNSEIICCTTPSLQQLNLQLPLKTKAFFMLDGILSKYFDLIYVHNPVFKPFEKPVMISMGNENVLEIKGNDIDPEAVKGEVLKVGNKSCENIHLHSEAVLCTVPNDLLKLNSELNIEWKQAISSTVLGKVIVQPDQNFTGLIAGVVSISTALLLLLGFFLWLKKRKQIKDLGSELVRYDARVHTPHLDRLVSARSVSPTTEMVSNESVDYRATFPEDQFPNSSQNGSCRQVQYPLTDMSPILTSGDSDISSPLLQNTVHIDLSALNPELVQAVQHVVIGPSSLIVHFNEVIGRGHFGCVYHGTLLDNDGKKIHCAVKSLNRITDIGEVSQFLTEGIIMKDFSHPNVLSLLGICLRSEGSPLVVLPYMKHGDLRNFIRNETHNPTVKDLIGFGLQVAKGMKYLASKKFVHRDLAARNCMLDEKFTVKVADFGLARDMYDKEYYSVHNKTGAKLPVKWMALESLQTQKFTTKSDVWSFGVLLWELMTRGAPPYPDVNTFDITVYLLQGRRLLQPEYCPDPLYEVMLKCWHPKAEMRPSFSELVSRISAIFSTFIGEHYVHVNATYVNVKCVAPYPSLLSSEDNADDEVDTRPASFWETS
Sequence of Fibroblast growth factor receptor 2 (Homo sapiens) (P21802 22-821 limits assumed): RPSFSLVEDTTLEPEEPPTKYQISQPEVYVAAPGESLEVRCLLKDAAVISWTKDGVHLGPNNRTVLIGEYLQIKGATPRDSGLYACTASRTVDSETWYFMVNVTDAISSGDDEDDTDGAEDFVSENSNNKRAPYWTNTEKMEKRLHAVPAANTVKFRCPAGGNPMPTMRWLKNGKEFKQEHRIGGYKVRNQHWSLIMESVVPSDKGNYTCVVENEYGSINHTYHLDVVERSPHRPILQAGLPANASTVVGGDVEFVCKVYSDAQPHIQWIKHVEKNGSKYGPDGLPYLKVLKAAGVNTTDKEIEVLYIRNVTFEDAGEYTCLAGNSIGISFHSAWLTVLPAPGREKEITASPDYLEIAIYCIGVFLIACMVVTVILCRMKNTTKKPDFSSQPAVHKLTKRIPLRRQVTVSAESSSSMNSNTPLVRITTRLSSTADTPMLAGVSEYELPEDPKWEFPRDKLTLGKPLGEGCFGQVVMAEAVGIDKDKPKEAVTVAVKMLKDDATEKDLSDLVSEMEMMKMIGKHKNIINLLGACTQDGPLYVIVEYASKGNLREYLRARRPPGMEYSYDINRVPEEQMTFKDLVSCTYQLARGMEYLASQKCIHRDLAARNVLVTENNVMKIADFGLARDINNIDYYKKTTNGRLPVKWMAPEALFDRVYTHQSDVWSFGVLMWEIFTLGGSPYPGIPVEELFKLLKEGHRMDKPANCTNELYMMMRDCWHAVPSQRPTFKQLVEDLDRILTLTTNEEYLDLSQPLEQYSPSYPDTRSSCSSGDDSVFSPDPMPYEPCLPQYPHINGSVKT
Sequence of Tyrosine-protein kinase Yes (Homo sapiens) (P07947 2-543 limits assumed): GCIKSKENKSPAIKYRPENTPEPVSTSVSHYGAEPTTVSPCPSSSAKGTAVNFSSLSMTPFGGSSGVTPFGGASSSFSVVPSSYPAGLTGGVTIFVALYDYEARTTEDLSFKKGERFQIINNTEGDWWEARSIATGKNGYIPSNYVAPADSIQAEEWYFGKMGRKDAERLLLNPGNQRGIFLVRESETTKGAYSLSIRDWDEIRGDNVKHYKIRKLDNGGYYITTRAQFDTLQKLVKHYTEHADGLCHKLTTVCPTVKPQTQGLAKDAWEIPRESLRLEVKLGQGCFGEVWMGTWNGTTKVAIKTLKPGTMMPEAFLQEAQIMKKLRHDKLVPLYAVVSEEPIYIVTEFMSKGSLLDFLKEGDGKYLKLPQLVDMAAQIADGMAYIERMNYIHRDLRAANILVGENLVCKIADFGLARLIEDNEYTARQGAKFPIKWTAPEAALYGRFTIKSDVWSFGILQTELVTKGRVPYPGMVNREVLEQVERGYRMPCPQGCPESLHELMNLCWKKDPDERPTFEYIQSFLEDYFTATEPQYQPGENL

The target of one test is T1, Tyrosine-protein kinase JAK3 (Homo sapiens) (UniProt P52333).
T1 sequence (whole entry): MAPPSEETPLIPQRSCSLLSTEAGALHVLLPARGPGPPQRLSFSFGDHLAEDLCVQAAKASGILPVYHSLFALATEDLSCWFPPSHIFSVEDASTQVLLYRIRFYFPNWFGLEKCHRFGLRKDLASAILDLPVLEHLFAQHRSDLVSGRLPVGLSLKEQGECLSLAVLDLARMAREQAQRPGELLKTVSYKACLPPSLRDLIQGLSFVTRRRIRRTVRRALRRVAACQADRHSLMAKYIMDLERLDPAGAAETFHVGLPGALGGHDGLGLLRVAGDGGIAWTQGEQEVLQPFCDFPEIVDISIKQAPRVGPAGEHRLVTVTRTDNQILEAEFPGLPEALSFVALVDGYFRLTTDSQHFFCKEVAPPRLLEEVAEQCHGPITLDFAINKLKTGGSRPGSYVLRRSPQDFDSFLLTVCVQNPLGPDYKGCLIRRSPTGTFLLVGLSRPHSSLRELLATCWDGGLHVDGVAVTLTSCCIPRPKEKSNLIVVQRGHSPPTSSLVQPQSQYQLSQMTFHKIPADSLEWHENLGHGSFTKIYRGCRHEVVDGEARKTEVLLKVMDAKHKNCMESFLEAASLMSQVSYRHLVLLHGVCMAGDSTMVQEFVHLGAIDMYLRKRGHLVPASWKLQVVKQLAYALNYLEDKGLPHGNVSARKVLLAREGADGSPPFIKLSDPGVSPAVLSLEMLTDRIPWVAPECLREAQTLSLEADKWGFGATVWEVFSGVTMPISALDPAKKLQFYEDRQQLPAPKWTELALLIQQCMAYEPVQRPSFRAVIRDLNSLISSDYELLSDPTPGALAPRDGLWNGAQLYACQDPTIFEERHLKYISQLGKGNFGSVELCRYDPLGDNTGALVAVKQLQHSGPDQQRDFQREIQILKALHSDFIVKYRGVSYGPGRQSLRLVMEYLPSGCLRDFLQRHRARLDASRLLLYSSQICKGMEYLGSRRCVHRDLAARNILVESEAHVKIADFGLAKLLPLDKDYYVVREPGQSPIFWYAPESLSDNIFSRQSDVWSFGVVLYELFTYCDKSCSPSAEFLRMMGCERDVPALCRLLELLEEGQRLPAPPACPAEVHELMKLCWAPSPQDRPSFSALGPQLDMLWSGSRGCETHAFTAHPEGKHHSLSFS
The test is described as follows: Inhibition of human JAK3 assessed as residual activity at 1 uM relative to control.
Consider `COc1ccc(-c2nc3cc(-c4csc(C(=O)NCCC(C)C)c4)cnc3[nH]2)cc1`, for which the Activity worked out at 96%.

Turning to `COc1ccc(-c2nc3cc(-c4csc(C(=O)NCC(C)(C)C)c4)cnc3[nH]2)cc1`, the Activity was 94%.

In the case of `COc1ccc(-c2nc3cc(-c4csc(C(=O)NCC(C)C)c4)cnc3[nH]2)cc1`, the Activity is 91%.

For another test, the target named is Proto-oncogene tyrosine-protein kinase Src (Homo sapiens) (UniProt P12931). Description: Inhibition of human SRC (1 to 530) assessed as residual activity at 1 uM relative to control.
Take `COc1ccc(-c2nc3cc(-c4csc(C(=O)NCCC(C)C)c4)cnc3[nH]2)cc1`: the Activity was 23%.

Turning to `COc1ccc(-c2nc3cc(-c4csc(C(=O)NCC(C)(C)C)c4)cnc3[nH]2)cc1`, the Activity amounted to 47%.

In the case of `COc1ccc(-c2nc3cc(-c4csc(C(=O)NCC(C)C)c4)cnc3[nH]2)cc1`, the Activity was 25%.

The next test addresses PI3-kinase p110-delta/p85-alpha (Homo sapiens) (UniProt P27986+O00329). Description: Inhibition of human PI3K p110delta/p85alpha assessed as residual activity at 1 uM relative to control. The format is protein-complex assay.
In the case of `COc1ccc(-c2nc3cc(-c4csc(C(=O)NCCC(C)C)c4)cnc3[nH]2)cc1`, the Activity is 95%.

Regarding `COc1ccc(-c2nc3cc(-c4csc(C(=O)NCC(C)(C)C)c4)cnc3[nH]2)cc1`, the Activity was determined as 91%.

Turning to `COc1ccc(-c2nc3cc(-c4csc(C(=O)NCC(C)C)c4)cnc3[nH]2)cc1`, the Activity is 94%.

In a further test the target is Aurora kinase B (Homo sapiens, UniProt Q96GD4). Description: Inhibition of human Aurora-B assessed as residual activity at 1 uM relative to control.
Sequence of Aurora kinase B (Q96GD4 whole entry): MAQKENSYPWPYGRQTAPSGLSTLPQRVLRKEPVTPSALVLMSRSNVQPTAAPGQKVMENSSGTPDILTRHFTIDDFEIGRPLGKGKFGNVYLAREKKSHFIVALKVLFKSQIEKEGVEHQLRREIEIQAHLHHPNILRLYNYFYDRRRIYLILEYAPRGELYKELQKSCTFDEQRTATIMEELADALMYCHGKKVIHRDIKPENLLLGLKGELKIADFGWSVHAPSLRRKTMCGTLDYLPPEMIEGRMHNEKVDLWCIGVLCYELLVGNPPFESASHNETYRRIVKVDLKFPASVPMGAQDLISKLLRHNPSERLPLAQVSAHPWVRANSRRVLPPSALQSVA
For `COc1ccc(-c2nc3cc(-c4csc(C(=O)NCCC(C)C)c4)cnc3[nH]2)cc1`, the Activity turned out to be 78%.

For `COc1ccc(-c2nc3cc(-c4csc(C(=O)NCC(C)(C)C)c4)cnc3[nH]2)cc1`, the Activity came to 75%.

As for `COc1ccc(-c2nc3cc(-c4csc(C(=O)NCC(C)C)c4)cnc3[nH]2)cc1`, the Activity worked out at 43%.

For the next test, the target named is T2, Serine/threonine-protein kinase Chk1 (Homo sapiens) (UniProt O14757).
T2 sequence (whole entry): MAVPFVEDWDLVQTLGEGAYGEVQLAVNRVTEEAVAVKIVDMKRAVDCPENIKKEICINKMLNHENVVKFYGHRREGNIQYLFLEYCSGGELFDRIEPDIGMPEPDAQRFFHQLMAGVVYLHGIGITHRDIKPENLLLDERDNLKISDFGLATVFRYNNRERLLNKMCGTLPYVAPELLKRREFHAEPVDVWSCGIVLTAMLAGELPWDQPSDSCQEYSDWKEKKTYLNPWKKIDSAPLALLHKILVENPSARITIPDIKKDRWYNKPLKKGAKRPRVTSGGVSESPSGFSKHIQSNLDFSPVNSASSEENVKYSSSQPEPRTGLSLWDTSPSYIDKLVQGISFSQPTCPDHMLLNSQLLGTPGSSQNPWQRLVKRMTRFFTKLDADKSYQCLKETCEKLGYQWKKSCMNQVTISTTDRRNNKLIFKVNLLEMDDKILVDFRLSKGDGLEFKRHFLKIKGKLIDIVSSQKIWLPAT
The test is described as follows: Inhibition of human CHK1 assessed as residual activity at 1 uM relative to control.
For `COc1ccc(-c2nc3cc(-c4csc(C(=O)NCCC(C)C)c4)cnc3[nH]2)cc1`, the Activity is 90%.

Take `COc1ccc(-c2nc3cc(-c4csc(C(=O)NCC(C)(C)C)c4)cnc3[nH]2)cc1`: the Activity is 103%.

In the case of `COc1ccc(-c2nc3cc(-c4csc(C(=O)NCC(C)C)c4)cnc3[nH]2)cc1`, the Activity was found to be 99%.

For a further test, the target named is Serine/threonine-protein kinase pim-2 (Homo sapiens) (UniProt Q9P1W9). The test is described as follows: Inhibition of human PIM-2 assessed as residual activity at 1 uM relative to control.
For `COc1ccc(-c2nc3cc(-c4csc(C(=O)NCCC(C)C)c4)cnc3[nH]2)cc1`, the Activity was 94%.

Turning to `COc1ccc(-c2nc3cc(-c4csc(C(=O)NCC(C)(C)C)c4)cnc3[nH]2)cc1`, the Activity amounted to 93%.

Consider `COc1ccc(-c2nc3cc(-c4csc(C(=O)NCC(C)C)c4)cnc3[nH]2)cc1`, for which the Activity came out at 90%.

A further test has as its target CDK2/Cyclin A2 (Homo sapiens) (UniProt P24941+P20248). Description: Inhibition of human CDK2/cyclin A assessed as residual activity at 1 uM relative to control. The format is protein-complex assay.
For `COc1ccc(-c2nc3cc(-c4csc(C(=O)NCCC(C)C)c4)cnc3[nH]2)cc1`, the Activity stood at 92%.

For `COc1ccc(-c2nc3cc(-c4csc(C(=O)NCC(C)(C)C)c4)cnc3[nH]2)cc1`, the Activity is 98%.

Turning to `COc1ccc(-c2nc3cc(-c4csc(C(=O)NCC(C)C)c4)cnc3[nH]2)cc1`, the Activity amounted to 103%.

The next test has as its target Epidermal growth factor receptor (Homo sapiens) (UniProt P00533). The test is described as follows: Inhibition of human EGFR assessed as residual activity at 1 uM relative to control.
As for `COc1ccc(-c2nc3cc(-c4csc(C(=O)NCCC(C)C)c4)cnc3[nH]2)cc1`, the Activity was 89%.

On to `COc1ccc(-c2nc3cc(-c4csc(C(=O)NCC(C)(C)C)c4)cnc3[nH]2)cc1`, for which the Activity stood at 97%.

As to `COc1ccc(-c2nc3cc(-c4csc(C(=O)NCC(C)C)c4)cnc3[nH]2)cc1`, the Activity came to 102%.

For another test, the target named is Casein kinase II subunit alpha' (Homo sapiens) (UniProt P19784). Description: Inhibition of human CK2-alpha2 assessed as residual activity at 1 uM relative to control.
Sequence of Casein kinase II subunit alpha' (Homo sapiens) (P19784 whole entry, looked up): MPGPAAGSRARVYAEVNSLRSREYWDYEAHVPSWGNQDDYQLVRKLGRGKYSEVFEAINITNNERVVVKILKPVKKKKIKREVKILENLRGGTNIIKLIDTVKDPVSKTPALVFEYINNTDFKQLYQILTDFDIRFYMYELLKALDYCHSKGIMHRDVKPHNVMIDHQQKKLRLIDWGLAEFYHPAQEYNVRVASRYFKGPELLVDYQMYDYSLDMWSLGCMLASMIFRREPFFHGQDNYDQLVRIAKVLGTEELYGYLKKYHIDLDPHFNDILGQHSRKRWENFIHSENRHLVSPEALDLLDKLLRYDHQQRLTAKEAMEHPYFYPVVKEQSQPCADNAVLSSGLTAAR
For `COc1ccc(-c2nc3cc(-c4csc(C(=O)NCCC(C)C)c4)cnc3[nH]2)cc1`, the Activity amounted to 59%.

With `COc1ccc(-c2nc3cc(-c4csc(C(=O)NCC(C)(C)C)c4)cnc3[nH]2)cc1`, the Activity was 74%.

In the case of `COc1ccc(-c2nc3cc(-c4csc(C(=O)NCC(C)C)c4)cnc3[nH]2)cc1`, the Activity is 91%.

The target in the next test is Phosphatidylinositol 4-phosphate 5-kinase type-1 gamma (Homo sapiens) (UniProt O60331). The test is described as follows: Inhibition of human PIP5K1gamma assessed as residual activity at 1 uM relative to control.
Turning to `COc1ccc(-c2nc3cc(-c4csc(C(=O)NCCC(C)C)c4)cnc3[nH]2)cc1`, the Activity turned out to be 93%.

In the case of `COc1ccc(-c2nc3cc(-c4csc(C(=O)NCC(C)(C)C)c4)cnc3[nH]2)cc1`, the Activity stood at 86%.

On to `COc1ccc(-c2nc3cc(-c4csc(C(=O)NCC(C)C)c4)cnc3[nH]2)cc1`, for which the Activity came out at 88%.

A further test has as its target Tyrosine-protein kinase Yes (Homo sapiens) (UniProt P07947). The test is described as follows: Inhibition of human YES assessed as residual activity at 1 uM relative to control.
`COc1ccc(-c2nc3cc(-c4csc(C(=O)NCCC(C)C)c4)cnc3[nH]2)cc1`: the Activity was 5%.

In the case of `COc1ccc(-c2nc3cc(-c4csc(C(=O)NCC(C)(C)C)c4)cnc3[nH]2)cc1`, the Activity is 15%.

On to `COc1ccc(-c2nc3cc(-c4csc(C(=O)NCC(C)C)c4)cnc3[nH]2)cc1`, for which the Activity is 6%.

Another test concerns the target Tyrosine-protein kinase ABL1 (Homo sapiens) (UniProt P00519). Description: Inhibition of human ABL assessed as residual activity at 1 uM relative to control.
`COc1ccc(-c2nc3cc(-c4csc(C(=O)NCCC(C)C)c4)cnc3[nH]2)cc1`: the Activity is 10%.

As to `COc1ccc(-c2nc3cc(-c4csc(C(=O)NCC(C)(C)C)c4)cnc3[nH]2)cc1`, the Activity turned out to be 8%.

Take `COc1ccc(-c2nc3cc(-c4csc(C(=O)NCC(C)C)c4)cnc3[nH]2)cc1`: the Activity is -2%.

Another test has as its target Ribosomal protein S6 kinase alpha-5 (Homo sapiens) (UniProt O75582). The test is described as follows: Inhibition of human MSK1 assessed as residual activity at 1 uM relative to control.
As to `COc1ccc(-c2nc3cc(-c4csc(C(=O)NCCC(C)C)c4)cnc3[nH]2)cc1`, the Activity amounted to 104%.

As to `COc1ccc(-c2nc3cc(-c4csc(C(=O)NCC(C)(C)C)c4)cnc3[nH]2)cc1`, the Activity was determined as 104%.

Take `COc1ccc(-c2nc3cc(-c4csc(C(=O)NCC(C)C)c4)cnc3[nH]2)cc1`: the Activity was determined as 100%.

The target in a further test is Mitogen-activated protein kinase 8 (Homo sapiens) (UniProt P45983). Description: Inhibition of human JNK1alpha1 assessed as residual activity at 1 uM relative to control.
Regarding `COc1ccc(-c2nc3cc(-c4csc(C(=O)NCCC(C)C)c4)cnc3[nH]2)cc1`, the Activity worked out at 98%.

For the compound `COc1ccc(-c2nc3cc(-c4csc(C(=O)NCC(C)(C)C)c4)cnc3[nH]2)cc1`, the Activity was found to be 98%.

For `COc1ccc(-c2nc3cc(-c4csc(C(=O)NCC(C)C)c4)cnc3[nH]2)cc1`, the Activity was determined as 117%.

In the next test the target is Casein kinase I isoform gamma-1 (Homo sapiens) (UniProt Q9HCP0). The test is described as follows: Inhibition of human CK1gamma1 assessed as residual activity at 1 uM relative to control.
Sequence of Casein kinase I isoform gamma-1 (Homo sapiens) (Q9HCP0 whole entry, looked up, canonical isoform): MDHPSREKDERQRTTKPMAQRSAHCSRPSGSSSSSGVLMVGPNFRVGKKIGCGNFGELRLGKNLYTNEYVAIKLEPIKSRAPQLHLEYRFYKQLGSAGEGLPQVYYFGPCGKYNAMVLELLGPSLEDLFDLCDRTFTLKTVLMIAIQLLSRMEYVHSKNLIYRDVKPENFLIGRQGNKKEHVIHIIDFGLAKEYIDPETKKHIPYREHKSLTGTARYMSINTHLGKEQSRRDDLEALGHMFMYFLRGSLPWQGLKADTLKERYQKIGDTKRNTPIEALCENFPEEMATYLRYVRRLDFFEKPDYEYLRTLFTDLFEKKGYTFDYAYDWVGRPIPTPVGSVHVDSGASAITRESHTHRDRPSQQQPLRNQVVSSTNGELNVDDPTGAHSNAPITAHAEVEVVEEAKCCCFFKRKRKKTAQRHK
Consider `COc1ccc(-c2nc3cc(-c4csc(C(=O)NCCC(C)C)c4)cnc3[nH]2)cc1`, for which the Activity was determined as 29%.

Take `COc1ccc(-c2nc3cc(-c4csc(C(=O)NCC(C)(C)C)c4)cnc3[nH]2)cc1`: the Activity came to 65%.

`COc1ccc(-c2nc3cc(-c4csc(C(=O)NCC(C)C)c4)cnc3[nH]2)cc1`: the Activity was found to be 44%.

The next test addresses Fibroblast growth factor receptor 2 (Homo sapiens) (UniProt P21802). The test is described as follows: Inhibition of human FGFR2 assessed as residual activity at 1 uM relative to control.
`COc1ccc(-c2nc3cc(-c4csc(C(=O)NCCC(C)C)c4)cnc3[nH]2)cc1`: the Activity was found to be 90%.

In the case of `COc1ccc(-c2nc3cc(-c4csc(C(=O)NCC(C)(C)C)c4)cnc3[nH]2)cc1`, the Activity worked out at 100%.

With `COc1ccc(-c2nc3cc(-c4csc(C(=O)NCC(C)C)c4)cnc3[nH]2)cc1`, the Activity was found to be 88%.

A further test has as its target Hepatocyte growth factor receptor (Homo sapiens) (UniProt P08581). The test is described as follows: Inhibition of human MET assessed as residual activity at 1 uM relative to control.
As for `COc1ccc(-c2nc3cc(-c4csc(C(=O)NCCC(C)C)c4)cnc3[nH]2)cc1`, the Activity came out at 111%.

Turning to `COc1ccc(-c2nc3cc(-c4csc(C(=O)NCC(C)(C)C)c4)cnc3[nH]2)cc1`, the Activity is 114%.

Turning to `COc1ccc(-c2nc3cc(-c4csc(C(=O)NCC(C)C)c4)cnc3[nH]2)cc1`, the Activity was determined as 107%.
